{
  "source": "patent US11850313B2",
  "about": "“Method and compositions for protecting tissue” (The London Health Sciences Centre Research Inc., priority 2019, dated 2023)",
  "key": {"[1]": {"tested_on": "donor kidneys", "test": "Static cold storage (4° C.) of donor kidneys in UW solution supplemented with AP39", "conditions": "AP39 added to UW / cold preservation solution, applicant's earlier work"}, "[2]": {"tested_on": "DCD porcine kidneys", "test": "Ex vivo subnormothermic perfusion of DCD porcine kidneys with Hemopure® at 21° C. followed by blood-free reperfusion at 37° C.", "design": "species or system Pigs", "conditions": "for tissue oxygenation during preservation: 21° C., vs SCS (FIG. 4A); for urine output during preservation: 4 h perfusion at 21° C., vs Hemopure® alone (FIG. 3A)", "excerpt": "Pigs weighing 55-65 kg were used for this study. The animals were maintained in accordance with the Committee on the Care and Use of Laboratory Animals appointed by the National Research Council. The animals were housed at the animal facility in the West Valley Building, which is managed by the Animal Care and Veterinary Services Department at The University of Western Ontario. The experimental protocol and housing conditions followed the guidelines of the university's Animal Care Committee and the Canadian Council on Animal Care.\n(§1) Pigs were tranquilized prior to transport to the Canadian Surgical Technologies & Advanced Robotics facility (CSTAR, University Hospital, London, Canada). Upon arrival at CSTAR, the animals were prepared for surgery as per SOP. A midline incision was used to expose the kidneys. The right and left kidneys with their ureters were dissected free from the retro peritoneum while leaving the blood supply to the ureter intact and then the ureter was divided. The renal vascular pedicles were left as long as possible by freeing the renal artery and vein up to the aorta and vena cava. The pedicles were clamped for 30 minutes to induce warm ischemia in the donor organs following intravenous infusion of 10000 units of heparin. The injury inflicted is likely greater than that of conventional DCD kidneys after withdrawal of life support as the blood supply is cutoff completely by clamping, which is more harmful than the gradual ischemic injury that occurs during cardiac death. Subsequently, nephrectomies of the left and right kidney were performed and the donor animal was euthanized. All the surgeries were performed by transplant fellows at University Hospital, London, Ontario, Canada.\nThe kidneys were randomly assigned to one of five preservation treatments. The first group of kidneys were flushed with and stored in HTK solution on ice for 4 h (SCS), which reflects the current clinical standard of care for organ preservation. The second group of kidneys were flushed with HTK solution and treated to 4 h of subnormothermic perfusion at 21° C. with Hemopure®. The third group of kidneys were flushed with HTK solution supplemented with 200 nM AP39 and treated to 4 h of subnormothermic perfusion at 21° C. with Hemopure® supplemented with 200 nM AP39. The fourth group of kidneys were flushed with HTK solution supplemented with 1 μM AP39 and treated to 4 h of subnormothermic perfusion at 21° C. with Hemopure® supplemented with 1 μM AP39. The fifth group of kidneys were flushed with HTK solution supplemented with 150 μM STS and treated to 4 h of subnormothermic perfusion at 21° C. with Hemopure® supplemented with 150 μM STS. After the 4 h preservation period, all kidneys were perfused with Hemopure® for 4 h at 37° C. with nutrients to simulate reperfusion after renal transplantation. The kidneys were perfused using an ex vivo perfusion apparatus (FIG. 4). The perfusion pressure was maintained at 50 mmHg. Hemopure® samples were analyzed hourly. The perfusate was oxygenated using an external mixed air supply (35% O2, 2 L/min). After reperfusion with stressed blood, kidneys were bivalved sagittally. One half was stored at −80° C. for mechanistic analyses and the other half was stored in formalin for histopathological analyses.\nHemopure® and urine samples were collected hourly during the 4 h preservation perfusion and during the 4 h reperfusion to evaluate graft function over time. Electrolyte levels, lactate levels and gas levels in the perfusate were measured hourly using the iSTAT point-of-care testing system. Hourly urine output was recorded, and total urine samples were also collected from both perfusion periods. Pictures of the kidney, urine bags and flow and pressure readings were taken hourly. Tissue oxygenation was also measured hourly. During both perfusion periods, we closely monitored pump parameters (flow and pressure) to ensure optimal graft function. […]"}, "[3]": {"tested_on": "kidney", "conditions": "AP39 supplementation of UW solution, 21° C.; cited from earlier work"}, "[4]": {"tested_on": "oxidatively stressed endothelial cells", "conditions": "including protection against oxidative mitochondrial DNA damage; cited from earlier work"}, "[5]": {"tested_on": "DCD porcine kidneys", "test": "Ex vivo perfusion of DCD porcine kidneys with autologous blood (SMP/NMP), then reperfusion with stressed blood at 37° C.", "design": "species or system Pigs", "experimental": "as §1, with “3000” for “10000”, “All the surgeries were performed by transplant fellows at University Hospital, London, Ontario, Canada.” left out\nThe kidneys were randomly assigned to one of four preservation treatments. […] Blood, urine and tissue samples were collected and analyzed as described in the next subsection.\nBlood and urine samples were collected hourly during the 4 h preservation perfusion with non-stressed blood and during the 4 h reperfusion with stressed blood to evaluate graft function over time. Hourly urine output was recorded, and total urine samples were also collected from both perfusion periods. Pictures of the kidney, urine bags and blood flow and pressure readings were taken hourly. […] During the perfusion periods, we closely monitored pump parameters (flow and pressure) to ensure optimal graft function. […] The total TUNEL+ area (%) was quantified for 10 random fields of view for 2 kidney samples per treatment group using ImageJ software v 1.50 (National Institutes of Health, USA). The total tubular area and TUNEL+ tubular area, used to calculate the TUNEL+ area (%), were determined by adjusting the brightness and saturation thresholds. […]"}, "[6]": {"conditions": "500 ppm; cited from earlier work"}},
  "data": [
    {"smiles": "O=C(CCCCCCCCC[P+](c1ccccc1)(c1ccccc1)c1ccccc1)Oc1ccc(-c2cc(=S)ss2)cc1.[Br-]", "note": "[AP39]", "values": [
      {"measurement": "graft outcomes", "setting": "[1]", "result": "improves renal graft outcomes"},
      {"measurement": "tissue oxygenation during preservation", "setting": "[2]; 200 nM AP39 in Hemopure®", "result": "higher tissue oxygenation than SCS"},
      {"measurement": "urine output during preservation", "setting": "[2]; 200 nM AP39 in Hemopure®", "result": "significantly higher"},
      {"measurement": "apoptotic tissue injury (TUNEL score)", "setting": "[2]; 200 nM AP39 in Hemopure®, after reperfusion, vs Hemopure® and Hemopure®+1 μM AP39 (FIGS. 6A-6F)", "result": "reduced apoptotic tissue injury"},
      {"measurement": "urine output during preservation", "setting": "[2]; 1 μM AP39 in Hemopure®", "result": "significantly higher"},
      {"measurement": "urine output during reperfusion", "setting": "[2]; preserved with 200 nM AP39 in Hemopure® at 21° C., 4 h reperfusion at 37° C., vs Hemopure® kidneys (FIG. 3B)", "result": "significantly higher"},
      {"measurement": "kidney preservation", "setting": "[3]", "result": "improves kidney preservation"},
      {"measurement": "protective effect under oxidative stress conditions", "setting": "[4]", "result": "cryoprotective effect"},
      {"measurement": "urine output during 4 h of preservation", "setting": "[5]; 200 nM AP39 in non-stressed blood at 21° C. (SMP-AP39-21C), vs SMP-21C and NMP-37C (FIG. 9A)", "result": "significantly higher"},
      {"measurement": "graft function", "setting": "[5]; AP39-supplemented blood at 21° C., vs cold storage in UW and perfusion with only blood at 21° C. and 37° C.", "result": "improves graft function"},
      {"measurement": "urine output during 4 h of reperfusion with stressed blood", "setting": "[5]; preserved with SMP-AP39-21C, vs SCS-4C, SMP-21C, NMP-37C (FIG. 9B)", "result": "significantly higher"}
    ]},
    {"smiles": "S", "note": "[H2S, Hydrogen sulfide]", "values": [
      {"measurement": "effect of exposure to extreme levels", "setting": "[6]", "result": "sudden collapse and unconsciousness"}
    ]},
    {"smiles": "O.O.O.O.O.O=S([O-])([O-])=S.[Na+].[Na+]", "note": "[STS, sodium thiosulfate (STS) pentahydrate]", "values": [
      {"measurement": "tissue oxygenation during preservation", "setting": "[2]; 150 μM STS in Hemopure®", "result": "higher tissue oxygenation than SCS"},
      {"measurement": "urine output during preservation", "setting": "[2]; 150 μM STS in Hemopure®", "result": "significantly higher"}
    ]}
  ]
}
